Source: patent US20220378763A1, “COMPOUND FOR TREATMENT OF ACUTE INFLAMMATION IN THE MYOCARDIUM” (CALPROTECT AB, priority 2019, published 2022)

Key:
[1] = tested on: C57BL/6 mice with MI induced by permanent coronary artery ligation; assay: MI by permanent coronary artery ligation, short-term (3 days) treatment: echocardiography, MRI, scar, infarct size, TUNEL; assay type: in vivo, mouse; details: for Size of the infarction, percentage of the AAR volume, vs PBS: TTC
Excerpt: All mouse studies were approved by the Animal Research Ethics Committee of Lund University. C57BL/6NRJ mice were purchased from Janvier Labs, C57BL/6-Tg(Nr4a1-EGFP/cre)820Khog/J (Nur77-EGFP) and B6;D2-Tg(Myh6*-mCherry)2Mik/J (α-MHC-mCherry) were purchased from the Jackson Laboratory. Nur77-EGFP mice express the fluorescent EGFP protein under the Nur77 promoter. α-MHC-mCherry mice express the red fluorescent Cherry protein under the mouse alpha myosin heavy-chain promoter in cardiomyocytes. We used 8-12 weeks old female mice in all experiments. MI was induced by left coronary artery ligation using a minimal thoracotomy model. Mice were initially anesthetized with 4% isoflurane and the surgical procedure was performed under 1.7% isoflurane. Following heart exposure outside of the thorax through a small thoracic incision, the left coronary artery was permanently ligated using silk 6.0 suture, the heart repositioned, and the thorax was closed with 6.0 prolene monofilament suture.
For short-term experiments, a daily dose of 30 mg/Kg ABR-238901 was diluted in PBS and administered by daily i.p. injections for the first 3 days post-MI, starting immediately after ischemia induction (days 0, 1 and 2) (FIG. 1A).
Ultrasound measurements were performed at day −1 (baseline), 7, and 21 to assess cardiac function using a Vevo 770 echocardiographic imaging system with a 707B probe (VisualSonics, Toronto, Canada). In selected experiments, additional assessment was performed on days 3 and 14. The mice were anesthetized using 1-3% isoflurane and hair was carefully removed using depilatory cream. To maintain body temperature, the mice were placed in supine position on a heated surface (37° C.). Two-dimensional M-mode images were recorded in the parasternal short-axis view at the mid-papillary level. Five complete cardiac cycles were traced to calculate fractional shortening, ejection fraction, left ventricular systolic volume, and left ventricular diastolic volume by using the VisualSonics software.
(§1) At 21 days after MI, the hearts were perfused with ice cold PBS and excised under ketamine/xylazine anesthesia. Subsequently the hearts were fixed in 4% (w/v) paraformaldehyde and embedded in paraffin. The hearts were sectioned transversely from the apex to the level of the suture, and 6 μm thick sections were collected at 390 μm intervals. The sections were mounted on glass slides and stained with Van Gieson or Masson trichrome stain for quantitative analysis of scar size. Alarmin S100A8/A9 was detected using mouse anti-S100A8/A9 IgG1 antibody (Abcam, ab 130234, 1:100 dilution, O/N 4° C.). Goat anti-mouse IgG1 HRP-conjugated secondary antibody (Abcam, ab 97240, 1 h RT) was used and the staining was developed with ImmPACT™ DAB (Vector, SK-4105) chromogen as substrate. The slides were subsequently scanned using an Aperio digital pathology slide scanner (Leica Biosystems), and images were captured with the ImageScope software (Leica Biosystems). Left ventricle area and the infarcted area were measured on each section by using the BioPix iQ 2.5.0 software (Biopix AB). The size of the post-MI myocardial scar was expressed as percentage of the left ventricle volume below the coronary ligature.
Magnetic resonance measurements were performed on a 9.4 T horizontal magnet (Agilent, Santa Clara, USA) equipped with Bruker BioSpec AVIII electronics operating with ParaVision 6.0.1 (Bruker, Ettlingen, Germany). The experiments were conducted under general anaesthesia using a mixture of isoflurane (2%) and 98% O2 via a nose cone. Rectal temperature, ECG signal, and breathing rate were monitored throughout the measurements (SA instruments, Stony Brook, USA). During the experiment, the mouse was positioned prone in an animal holder and kept warm to maintain constant body temperature at 36-37° C. ECG and respiration triggered FLASH sequence was used to acquire cinematographic MR image series of the beating heart. […]

[2] = tested on: C57BL/6 mice with MI induced by permanent coronary artery ligation; assay: S100A8/A9 in plasma (ELISA) and myocardium (immunohistochemistry) 3 days post-MI; assay type: in vivo, mouse
Method: as §1, with “Subsequently” for “At 21 days after MI, the hearts were perfused with ice cold PBS and excised under ketamine/xylazine anesthesia. Subsequently”
Plasma levels of S100A8/A9 heterodimer was measured by DuoSet®ELISA (R&D Systems, DY8596-05), according to manufacturer instructions. All the samples were diluted 1:100 prior to analysis. Biotinylated goat anti-mouse S100A8/A9 antibody was used as […] antibody and streptavidin-HRP was used for detection. […]

[3] = 3 days treatment, MR, not statistically significant

SMILES: COc1ncc(S(=O)(=O)Nc2cncc(Cl)c2O)cc1Br [ABR-238901, 5-bromo-N-(5-chloro-4-hydroxypyridin-3-yl)-6-methoxypyridine-3-sulfonamide]
- Left ventricular EF, average ([1]; 30 mg/Kg i.p. at 0, 24, 48 h, echocardiography, day 21): 36%
- Left ventricular EF vs PBS-treated controls ([1]; 30 mg/Kg i.p. at 0, 24, 48 h, echocardiography, days 3, 7, 21): higher throughout the follow-up period
- Increase in cardiac output from day 3 to day 21 ([1]; 3 days treatment, MR): approximately 30%
- Cardiac output (CO) ([1]; 3 days treatment, MR, day 3): 8.1 mL/min
- Left ventricular EF ([1]; 3 days treatment, MR, day 3): 29%
- Left ventricular EF ([1]; 3 days treatment, MR, day 7): 25%
- Cardiac output (CO) ([1]; 3 days treatment, MR, day 21): 10.4 mL/min
- Left ventricular EF ([1]; 3 days treatment, MR, day 21): 26%
- EDV vs PBS-treated MI group [1, 3]: tendency towards lower
- ESV vs PBS-treated MI group [1, 3]: tendency towards lower
- Size of the infarction, percentage of the AAR volume, vs PBS ([1]; 3 days treatment, day 3 post-MI): smaller
- Size of the infarction, percentage of the AAR volume, vs PBS ([1]; 3 days treatment, day 7 post-MI): smaller
- Average myocardial scar size vs controls ([1]; 3 days treatment, day 21, Van Gieson staining): tendency towards smaller
- Percentage of apoptotic cells in the myocardium (TUNEL) ([1]; day 3 post-MI): significantly reduced
- Plasma levels of S100A8/A9 ([2]; ELISA): reduced
- S100A8/A9 presence in the infarcted myocardium ([2]; immunohistochemical staining): reduced
